Each molecule was assayed on genotype 1a replicon (1a-H77) (assay: 1a stable replicon (luciferase reporter)). Conditions: Hepatitis C virus, Huh-7, luciferase reporter, HuH-7 cells, 5% FBS.
Assay type: cell-based, HCV

| SMILES | EC50 |
| --- | --- |
| Cn1ccc(C(=O)N[C@H]2CCCCC/C=C\[C@@H]3C[C@@]3(C(=O)NS(=O)(=O)C3CC3)NC(=O)[C@@H]3C[C@@H](Oc4nc5cc(F)ccc5c5cc(OC(F)(F)F)ccc45)CN3C2=O)n1 | 0.5 to 1 nM |
| O=C(N[C@H]1CCCCC/C=C\[C@@H]2C[C@@]2(C(=O)NS(=O)(=O)C2CC2)NC(=O)[C@@H]2C[C@@H](Oc3nc4cc(F)ccc4c4cc(F)ccc34)CN2C1=O)c1cscn1 [drawing 124] | 0.5 to 1 nM |
| CC1(S(=O)(=O)NC(=O)[C@@]23C[C@H]2/C=C\CCCCC[C@H](NC(=O)c2ccns2)C(=O)N2C[C@H](Oc4nc5cc(F)ccc5c5ccccc45)C[C@H]2C(=O)N3)CC1 | 0.5 to 1 nM |
| Cn1ccc(C(=O)N[C@H]2CCCCC/C=C\[C@@H]3C[C@@]3(C(=O)NS(=O)(=O)C3(C)CC3)NC(=O)[C@@H]3C[C@@H](Oc4nc5cc(F)ccc5c5ccccc45)CN3C2=O)n1 | 0.5 to 1 nM |
| Cc1cc(C(=O)N[C@H]2CCCCC/C=C\[C@@H]3C[C@@]3(C(=O)NS(=O)(=O)C3CC3)NC(=O)[C@@H]3C[C@@H](Oc4nc5ccccc5c5cccc(F)c45)CN3C2=O)no1 | 0.1 to 0.5 nM |
| COc1ccc2c(c1)nc(O[C@@H]1C[C@H]3C(=O)N[C@]4(C(=O)NS(=O)(=O)C5(C)CC5)C[C@H]4/C=C\CCCCC[C@H](NC(=O)c4cc(C)on4)C(=O)N3C1)c1ccccc12 | 0.1 to 0.5 nM |
| CC1(S(=O)(=O)NC(=O)[C@@]23C[C@H]2/C=C\CCCCC[C@H](NC(=O)c2cncs2)C(=O)N2C[C@H](Oc4nc5ccccc5c5cc(F)ccc45)C[C@H]2C(=O)N3)CC1 | 0.5 to 1 nM |
| COc1ccc2c(c1)c(O[C@@H]1C[C@H]3C(=O)N[C@]4(C(=O)NS(=O)(=O)C5CC5)C[C@H]4/C=C\CCCCC[C@H](NC(=O)c4cc(C)on4)C(=O)N3C1)nc1ccccc12 | 0.1 to 0.5 nM |
| CC1(S(=O)(=O)NC(=O)[C@@]23C[C@H]2/C=C\CCCCC[C@H](NC(=O)c2cncs2)C(=O)N2C[C@H](Oc4nc5cc(F)ccc5c5cc(F)ccc45)C[C@H]2C(=O)N3)CC1 | > 1 nM |
| CC1(S(=O)(=O)NC(=O)[C@@]23C[C@H]2/C=C\CCCCC[C@H](NC(=O)c2cscn2)C(=O)N2C[C@H](Oc4nc5cc(F)ccc5c5cc(F)ccc45)C[C@H]2C(=O)N3)CC1 | 0.5 to 1 nM |

These molecules were tested on genotype 1a transient replicon (1a-H77) (assay: 1a transient replicon (luciferase reporter)). Conditions: Hepatitis C virus, HuH-7 cells, 5% FBS.
Assay type: cell-based, HCV

| SMILES | EC50 |
| --- | --- |
| Cn1ccc(C(=O)N[C@H]2CCCCC/C=C\[C@@H]3C[C@@]3(C(=O)NS(=O)(=O)C3CC3)NC(=O)[C@@H]3C[C@@H](Oc4nc5cc(F)ccc5c5cc(OC(F)(F)F)ccc45)CN3C2=O)n1 | 0.1 to 0.5 nM |
| O=C(N[C@H]1CCCCC/C=C\[C@@H]2C[C@@]2(C(=O)NS(=O)(=O)C2CC2)NC(=O)[C@@H]2C[C@@H](Oc3nc4cc(F)ccc4c4cc(F)ccc34)CN2C1=O)c1cscn1 [drawing 124] | 0.1 to 0.5 nM |
| CC1(S(=O)(=O)NC(=O)[C@@]23C[C@H]2/C=C\CCCCC[C@H](NC(=O)c2ccns2)C(=O)N2C[C@H](Oc4nc5cc(F)ccc5c5ccccc45)C[C@H]2C(=O)N3)CC1 | < 0.1 nM |
| Cn1ccc(C(=O)N[C@H]2CCCCC/C=C\[C@@H]3C[C@@]3(C(=O)NS(=O)(=O)C3(C)CC3)NC(=O)[C@@H]3C[C@@H](Oc4nc5cc(F)ccc5c5ccccc45)CN3C2=O)n1 | 0.1 to 0.5 nM |
| Cc1cc(C(=O)N[C@H]2CCCCC/C=C\[C@@H]3C[C@@]3(C(=O)NS(=O)(=O)C3CC3)NC(=O)[C@@H]3C[C@@H](Oc4nc5ccccc5c5cccc(F)c45)CN3C2=O)no1 | < 0.1 nM |
| COc1ccc2c(c1)nc(O[C@@H]1C[C@H]3C(=O)N[C@]4(C(=O)NS(=O)(=O)C5(C)CC5)C[C@H]4/C=C\CCCCC[C@H](NC(=O)c4cc(C)on4)C(=O)N3C1)c1ccccc12 | < 0.1 nM |
| CC1(S(=O)(=O)NC(=O)[C@@]23C[C@H]2/C=C\CCCCC[C@H](NC(=O)c2cncs2)C(=O)N2C[C@H](Oc4nc5ccccc5c5cc(F)ccc45)C[C@H]2C(=O)N3)CC1 | < 0.1 nM |
| COc1ccc2c(c1)c(O[C@@H]1C[C@H]3C(=O)N[C@]4(C(=O)NS(=O)(=O)C5CC5)C[C@H]4/C=C\CCCCC[C@H](NC(=O)c4cc(C)on4)C(=O)N3C1)nc1ccccc12 | < 0.1 nM |
| CC1(S(=O)(=O)NC(=O)[C@@]23C[C@H]2/C=C\CCCCC[C@H](NC(=O)c2cncs2)C(=O)N2C[C@H](Oc4nc5cc(F)ccc5c5cc(F)ccc45)C[C@H]2C(=O)N3)CC1 | < 0.1 nM |
| CC1(S(=O)(=O)NC(=O)[C@@]23C[C@H]2/C=C\CCCCC[C@H](NC(=O)c2cscn2)C(=O)N2C[C@H](Oc4nc5cc(F)ccc5c5cc(F)ccc45)C[C@H]2C(=O)N3)CC1 | < 0.1 nM |

These molecules were tested on genotype 3a NS3 gene in transient replicon (assay: 3a transient replicon (luciferase reporter)). Conditions: Hepatitis C virus, Huh-7, read-out: 3a transient replicon (nM).
Assay type: cell-based, HCV

| SMILES | EC50 |
| --- | --- |
| Cn1ccc(C(=O)N[C@H]2CCCCC/C=C\[C@@H]3C[C@@]3(C(=O)NS(=O)(=O)C3CC3)NC(=O)[C@@H]3C[C@@H](Oc4nc5cc(F)ccc5c5cc(OC(F)(F)F)ccc45)CN3C2=O)n1 | > 1 nM |
| O=C(N[C@H]1CCCCC/C=C\[C@@H]2C[C@@]2(C(=O)NS(=O)(=O)C2CC2)NC(=O)[C@@H]2C[C@@H](Oc3nc4cc(F)ccc4c4cc(F)ccc34)CN2C1=O)c1cscn1 [drawing 124] | > 1 nM |
| CC1(S(=O)(=O)NC(=O)[C@@]23C[C@H]2/C=C\CCCCC[C@H](NC(=O)c2ccns2)C(=O)N2C[C@H](Oc4nc5cc(F)ccc5c5ccccc45)C[C@H]2C(=O)N3)CC1 | > 1 nM |
| Cn1ccc(C(=O)N[C@H]2CCCCC/C=C\[C@@H]3C[C@@]3(C(=O)NS(=O)(=O)C3(C)CC3)NC(=O)[C@@H]3C[C@@H](Oc4nc5cc(F)ccc5c5ccccc45)CN3C2=O)n1 | 0.1 to 0.5 nM |
| Cc1cc(C(=O)N[C@H]2CCCCC/C=C\[C@@H]3C[C@@]3(C(=O)NS(=O)(=O)C3CC3)NC(=O)[C@@H]3C[C@@H](Oc4nc5ccccc5c5cccc(F)c45)CN3C2=O)no1 | > 1 nM |
| COc1ccc2c(c1)nc(O[C@@H]1C[C@H]3C(=O)N[C@]4(C(=O)NS(=O)(=O)C5(C)CC5)C[C@H]4/C=C\CCCCC[C@H](NC(=O)c4cc(C)on4)C(=O)N3C1)c1ccccc12 | > 1 nM |
| CC1(S(=O)(=O)NC(=O)[C@@]23C[C@H]2/C=C\CCCCC[C@H](NC(=O)c2cncs2)C(=O)N2C[C@H](Oc4nc5ccccc5c5cc(F)ccc45)C[C@H]2C(=O)N3)CC1 | > 1 nM |
| COc1ccc2c(c1)c(O[C@@H]1C[C@H]3C(=O)N[C@]4(C(=O)NS(=O)(=O)C5CC5)C[C@H]4/C=C\CCCCC[C@H](NC(=O)c4cc(C)on4)C(=O)N3C1)nc1ccccc12 | > 1 nM |
| CC1(S(=O)(=O)NC(=O)[C@@]23C[C@H]2/C=C\CCCCC[C@H](NC(=O)c2cncs2)C(=O)N2C[C@H](Oc4nc5cc(F)ccc5c5cc(F)ccc45)C[C@H]2C(=O)N3)CC1 | > 1 nM |
| CC1(S(=O)(=O)NC(=O)[C@@]23C[C@H]2/C=C\CCCCC[C@H](NC(=O)c2cscn2)C(=O)N2C[C@H](Oc4nc5cc(F)ccc5c5cc(F)ccc45)C[C@H]2C(=O)N3)CC1 | > 1 nM |

What follows are molecules tested on genotype 1b replicon (1b-Con1, 1b-N) (assay: 1b stable replicon (luciferase reporter)). Conditions: Hepatitis C virus, HuH-7 cells, 5% FBS.
Assay type: cell-based, HCV

| SMILES | EC50 |
| --- | --- |
| Cn1ccc(C(=O)N[C@H]2CCCCC/C=C\[C@@H]3C[C@@]3(C(=O)NS(=O)(=O)C3CC3)NC(=O)[C@@H]3C[C@@H](Oc4nc5cc(F)ccc5c5cc(OC(F)(F)F)ccc45)CN3C2=O)n1 | < 0.1 nM |
| O=C(N[C@H]1CCCCC/C=C\[C@@H]2C[C@@]2(C(=O)NS(=O)(=O)C2CC2)NC(=O)[C@@H]2C[C@@H](Oc3nc4cc(F)ccc4c4cc(F)ccc34)CN2C1=O)c1cscn1 [drawing 124] | 0.1 to 0.5 nM |
| CC1(S(=O)(=O)NC(=O)[C@@]23C[C@H]2/C=C\CCCCC[C@H](NC(=O)c2ccns2)C(=O)N2C[C@H](Oc4nc5cc(F)ccc5c5ccccc45)C[C@H]2C(=O)N3)CC1 | 0.1 to 0.5 nM |
| Cn1ccc(C(=O)N[C@H]2CCCCC/C=C\[C@@H]3C[C@@]3(C(=O)NS(=O)(=O)C3(C)CC3)NC(=O)[C@@H]3C[C@@H](Oc4nc5cc(F)ccc5c5ccccc45)CN3C2=O)n1 | 0.1 to 0.5 nM |
| Cc1cc(C(=O)N[C@H]2CCCCC/C=C\[C@@H]3C[C@@]3(C(=O)NS(=O)(=O)C3CC3)NC(=O)[C@@H]3C[C@@H](Oc4nc5ccccc5c5cccc(F)c45)CN3C2=O)no1 | 0.1 to 0.5 nM |
| COc1ccc2c(c1)nc(O[C@@H]1C[C@H]3C(=O)N[C@]4(C(=O)NS(=O)(=O)C5(C)CC5)C[C@H]4/C=C\CCCCC[C@H](NC(=O)c4cc(C)on4)C(=O)N3C1)c1ccccc12 | 0.1 to 0.5 nM |
| CC1(S(=O)(=O)NC(=O)[C@@]23C[C@H]2/C=C\CCCCC[C@H](NC(=O)c2cncs2)C(=O)N2C[C@H](Oc4nc5ccccc5c5cc(F)ccc45)C[C@H]2C(=O)N3)CC1 | 0.1 to 0.5 nM |
| COc1ccc2c(c1)c(O[C@@H]1C[C@H]3C(=O)N[C@]4(C(=O)NS(=O)(=O)C5CC5)C[C@H]4/C=C\CCCCC[C@H](NC(=O)c4cc(C)on4)C(=O)N3C1)nc1ccccc12 | 0.5 to 1 nM |
| CC1(S(=O)(=O)NC(=O)[C@@]23C[C@H]2/C=C\CCCCC[C@H](NC(=O)c2cncs2)C(=O)N2C[C@H](Oc4nc5cc(F)ccc5c5cc(F)ccc45)C[C@H]2C(=O)N3)CC1 | 0.1 to 0.5 nM |
| CC1(S(=O)(=O)NC(=O)[C@@]23C[C@H]2/C=C\CCCCC[C@H](NC(=O)c2cscn2)C(=O)N2C[C@H](Oc4nc5cc(F)ccc5c5cc(F)ccc45)C[C@H]2C(=O)N3)CC1 | 0.1 to 0.5 nM |

What follows are molecules tested on genotype 1b transient replicon (assay: 1b transient replicon (luciferase reporter)). Conditions: Hepatitis C virus, HuH-7 cells, 5% FBS.
Assay type: cell-based, HCV

| SMILES | EC50 |
| --- | --- |
| Cn1ccc(C(=O)N[C@H]2CCCCC/C=C\[C@@H]3C[C@@]3(C(=O)NS(=O)(=O)C3CC3)NC(=O)[C@@H]3C[C@@H](Oc4nc5cc(F)ccc5c5cc(OC(F)(F)F)ccc45)CN3C2=O)n1 | 0.1 to 0.5 nM |
| O=C(N[C@H]1CCCCC/C=C\[C@@H]2C[C@@]2(C(=O)NS(=O)(=O)C2CC2)NC(=O)[C@@H]2C[C@@H](Oc3nc4cc(F)ccc4c4cc(F)ccc34)CN2C1=O)c1cscn1 [drawing 124] | 0.1 to 0.5 nM |
| CC1(S(=O)(=O)NC(=O)[C@@]23C[C@H]2/C=C\CCCCC[C@H](NC(=O)c2ccns2)C(=O)N2C[C@H](Oc4nc5cc(F)ccc5c5ccccc45)C[C@H]2C(=O)N3)CC1 | 0.1 to 0.5 nM |
| Cn1ccc(C(=O)N[C@H]2CCCCC/C=C\[C@@H]3C[C@@]3(C(=O)NS(=O)(=O)C3(C)CC3)NC(=O)[C@@H]3C[C@@H](Oc4nc5cc(F)ccc5c5ccccc45)CN3C2=O)n1 | 0.1 to 0.5 nM |
| Cc1cc(C(=O)N[C@H]2CCCCC/C=C\[C@@H]3C[C@@]3(C(=O)NS(=O)(=O)C3CC3)NC(=O)[C@@H]3C[C@@H](Oc4nc5ccccc5c5cccc(F)c45)CN3C2=O)no1 | 0.1 to 0.5 nM |
| COc1ccc2c(c1)nc(O[C@@H]1C[C@H]3C(=O)N[C@]4(C(=O)NS(=O)(=O)C5(C)CC5)C[C@H]4/C=C\CCCCC[C@H](NC(=O)c4cc(C)on4)C(=O)N3C1)c1ccccc12 | 0.1 to 0.5 nM |
| CC1(S(=O)(=O)NC(=O)[C@@]23C[C@H]2/C=C\CCCCC[C@H](NC(=O)c2cncs2)C(=O)N2C[C@H](Oc4nc5ccccc5c5cc(F)ccc45)C[C@H]2C(=O)N3)CC1 | 0.1 to 0.5 nM |
| COc1ccc2c(c1)c(O[C@@H]1C[C@H]3C(=O)N[C@]4(C(=O)NS(=O)(=O)C5CC5)C[C@H]4/C=C\CCCCC[C@H](NC(=O)c4cc(C)on4)C(=O)N3C1)nc1ccccc12 | 0.1 to 0.5 nM |
| CC1(S(=O)(=O)NC(=O)[C@@]23C[C@H]2/C=C\CCCCC[C@H](NC(=O)c2cncs2)C(=O)N2C[C@H](Oc4nc5cc(F)ccc5c5cc(F)ccc45)C[C@H]2C(=O)N3)CC1 | 0.1 to 0.5 nM |
| CC1(S(=O)(=O)NC(=O)[C@@]23C[C@H]2/C=C\CCCCC[C@H](NC(=O)c2cscn2)C(=O)N2C[C@H](Oc4nc5cc(F)ccc5c5cc(F)ccc45)C[C@H]2C(=O)N3)CC1 | 0.1 to 0.5 nM |
